Source: patent US10123985B2, “Therapeutic strategies for treating mitochondrial disorders” (Whitehead Institute for Biomedical Research, priority 2015, dated 2018)
Entries after “also recorded” stand apart in the source; their conditions may differ.

Columns and labels:
[1] = system: MERRF and CYTB cybrids, 143B ρ0 cells; assay: Cell counting assay of cybrids and 143B ρ0 cells; format: cell-based; details: 6 days; for Proliferation of ETC-deficient cybrids and 143B ρ0 cells: RPMI with uridine, pyruvate (1 mM) or aspartate (10 mM); for Proliferation of ETC-defective cybrids expressing sgGOT1: uridine and pyruvate (1 mM), with or without aspartate (10 mM)
Method: Cybrids or 143B ρ0 cells were plated in triplicate in 12 well plates at 5,000-20,000 cells per well in 1.5 mL as described in each experiment. After six days, the entire contents of the well was trypsinized and counted using a Beckman Z2 Coulter Counter with a size selection setting of 8-30 um.
Transmitochondrial cytoplasmic hybrid cells (cybrids) are commonly used to study the mechanisms through which mutations in mitochondrial DNA (mtDNA) impair cellular function (Schon et al., 2012). These cells harbor patient-derived mitochondrial genomes with pathogenic mutations, and, like cells treated with ETC inhibitors, require pyruvate to proliferate in culture (King and Attardi, 1989, 1996). To expand upon our work with pharmacological inhibition of the ETC, we asked if aspartate supplementation rescues the proliferation of cells with genetic ETC defects. We used two patient-derived cybrid cells, the first with a homoplasmic microdeletion in the cytochrome b subunit of complex III (CYTB) associated with a form of parkinsonism and encephalopathy (De Coo et al., 1999; Rana et al., 2000), and the second with a homoplasmic point mutation in the mitochondrially encoded tRNA lysine (MT-TK) associated with myoclonic epilepsy with ragged red fibers (MERRF) (Wallace et al., 1988). To characterize the metabolic needs of these cybrids, as well as cells lacking mtDNA (143B ρ0), we cultured them in media with or without pyruvate or aspartate.

[2] = system: A172, H1299, HeLa, U87, FL5.12, and MEF cell lines; assay: Proliferation assay of a panel of cell lines treated with respiration inhibitors; format: cell-based; details: rotenone, antimycin or oligomycin plus the substance
Method: 143B, A172, H1299, HeLa, U87 and MEF cells were cultured in Dulbecco's Modified Eagle's Medium (DMEM) (Gibco) supplemented with 10% fetal bovine serum (FBS) and penicillin-streptomycin. FL5.12 cells were cultured in the same medium and supplemented with 5 μg/mL recombinant mouse IL-3 (R&D Systems). 143B cybrid cell lines (WT Cybrid and CytB) were cultured in DMEM with 10% FBS, penicillin-streptomycin, and 0.1 mg/mL uridine. All cells incubated at 37° C. with 5% CO2.
Adherent cell lines growing in log phase were trypsinized, counted, and plated onto 6 well dishes (Corning) in 2 mL complete DMEM and incubated overnight. Initial seeding density was 2E4 cells per well for 143B, A172, H1299, HeLa, 143B WT Cybrid, and MEFs and 3E4 cells for 143B CytB and U87 cells. The following day, one plate of cells was counted to determine the initial cell count at the time of treatment. Cells were washed 2 times with 2 mL phosphate buffered saline (PBS) and 4 mL media premixed with the indicated treatments was added. FL5.12 cells, a suspension cell line, were washed 2 times in PBS and added directly to media containing the indicated treatments and 5 μg/mL recombinant mouse IL-3. Proliferation rate assay media was DMEM without pyruvate containing 10% dialyzed FBS, penicillin-streptomycin, and 0.1 mg/mL uridine, unless otherwise noted. For these cell lines at these seeding densities it was determined that for 4 days the cells maintained logarithmic proliferation (data not shown), therefore final cell counts were measured 4 days after treatment. Cells were counted using Cellometer Auto T4 Plus Cell Counter (Nexcelom Bioscience). Proliferation rate was determined using the following formula: Proliferation Rate (Doublings per day)=(log2(Final cell count (day 5)/Initial cell count (day 1))/4 (days)

[3] = system: 143B cells; assay: Amino acid and TCA cycle metabolite GC-MS analysis, 143B cells; format: cell-based
Method: 143B and 143B CytB cells were seeded at 400,000 cells/well in 6 well dishes overnight. The following day, cells were washed 2 times in PBS and media was changed to proliferation assay media with or without the indicated treatments. […] Soluble content was then dried under nitrogen gas. Polar samples were derivatized and measured as detailed in (Lewis). Relative metabolite abundances were determined by integrating ion peak area (Metran) and normalized to norvaline internal extraction standard.

[4] = system: 143B CytB cells; assay: Purine nucleotide extraction and LC-MS analysis; format: cell-based
Method: 143B CytB cells were seeded at 400,000 cells/well in 6 well dishes overnight. The following day, cells were washed 2 times in PBS and media was changed to proliferation assay media with or without the indicated treatments. After 15 hours polar metabolites were extracted from cells using 250 μL of ice cold 80% methanol. After scraping the cells, 250 μL of chloroform was added before vortexing for 10 min at 4° C. and centrifugation for 10 min at 4° C. at 16,000 g, 40 μL of the top, water-methanol, layer was transferred into a LC-MS tube and samples were analyzed. A Dionex UltiMate 3000 ultra-high performance liquid chromatography system connected to a Q Exactive benchtop Orbitrap mass spectrometer, equipped with an Ion Max source and a HESI II probe (Thermo Fisher Scientific) was used to quantify metabolites. Samples were separated by chromatography by injecting 10 μL of sample on a SeQuant ZIC-pHILIC Polymeric column (2.1×150 mm 5 μM, EMD Millipore). Flow rate was set to 150 μL/min, temperatures were set to 25° C. for column compartment and 4° C. for autosampler sample tray. Mobile Phase A consisted of 20 mM ammonium carbonate, 0.1% ammonium hydroxide. Mobile Phase B was 100% acetonitrile. The mobile phase gradient (% B) was set in the following protocol: 0-20 min.: linear gradient from 80% to 20% B; 20-20.5 min.: linear gradient from 20% to 80% B; 20.5-28 min.: hold at 80% B. Mobile phase was introduced into the ionization source set to the following parameters: sheath gas=40, auxiliary gas=15, sweep gas=1, spray voltage=−3.1 kV, capillary temperature=275° C., S-lens RF level=40, probe temperature=350° C. Metabolites were monitored using full scan in negative mode in the range of 285-700 m/z, with the resolution set at 140,000, the AGC target at 106, and the maximum injection time at 250 msec. Relative quantitation of metabolites was performed with XCalibur QuanBrowser 2.2 (Thermo Fisher Scientific) using a 5 ppm mass tolerance and referencing an in-house retention time library of chemical standards.

[5] = system: lactate dehydrogenase (LDH); assay: Lactate dehydrogenase assay (disappearance of NADH absorbance); format: biochemical; details: 1 mM α-ketobutyrate, 180 μM NADH, absorbance at 340 nm
Method: Immediately prior to the start of the assay 100 μL of a reaction buffer containing 50 mM HEPES-KOH pH 7.5, 20 mM KCl, 2 mM MgCl2, 1 mM DTT, 180 μM NADH, 1 mM α-ketobutyrate (where applicable) was combined with LDH (where applicable) in 96-well plates. Lactate dehydrogenase activity was assayed by monitoring disappearance of NADH absorbance at 340 nm over time.

[6] = cells without AKB supplementation compared to AKB replete cells

For `CC(=O)C(=O)O` [pyruvate], the “Proliferation of ETC-deficient cybrids and 143B ρ0 cells” value [1] was “proliferated in media supplemented with pyruvate” and the “Proliferation of ETC-defective cybrids expressing sgGOT1” value [1] was “requires GOT1; also recorded: enables the proliferation of patient-derived cybrid cells in a GOT1-dependent fashion”.
With `CCC(=O)C(=O)O` [AKB, α-ketobutyrate] the “Proliferation of cell line panel with supplementation” value [2] was “sufficient to restore proliferation in the presence of ETC inhibitors”, the “Aspartate level with AKB treatment” value ([3]; 143B CytB cells and inhibitor-treated 143B cells, relative to untreated cells) was “restored aspartate to levels comparable to, or higher than, untreated cells” and the Intracellular aspartate levels ([3]; rotenone treated 143B cells, 24 hours, AKB or 1 mM asparagine) was “increased intracellular aspartate”. For the same molecule, the IMP level ([4]; cells cultured without AKB compared to AKB replete cells) was “increased levels”, the AMP level [4, 6] was “decreased” and the GMP level [4, 6] was “decreased”. For the same molecule, the AMP/IMP ratio ([4]; upon AKB withdrawal) was “dramatically decrease”, the GMP/IMP ratio ([4]; upon AKB withdrawal) was “dramatically decrease” and the “Regeneration of NAD+ from NADH by LDH” value [5] was “capable of regenerating NAD^+ from NADH”.
With `N[C@@H](CC(=O)O)C(=O)O` [aspartate] the “Proliferation of cell line panel with supplementation” value [2] was “rescued ETC inhibitor-induced proliferation decreases in all other cell lines tested”, the AMP level ([4]; 143B CytB cells with aspartate) was “restores AMP pools” and the GMP level ([4]; 143B CytB cells with aspartate) was “not restored; also recorded: actually lower”. For the same molecule, the IMP level ([4]; 143B CytB cells with aspartate) was “relieves the accumulation of IMP”, the “Proliferation of ETC-deficient cybrids and 143B ρ0 cells” value [1] was “on its own enabled their proliferation; also recorded: can replace pyruvate in enabling the proliferation of patient-derived mtDNA mutant cybrids and 143B ρ0 cells” and the “Proliferation of ETC-defective cybrids expressing sgGOT1” value [1] was “bypassed the need for GOT1; also recorded: can be bypassed by aspartate”.
